Measurements reported in patent US10064913B2, “Immunotherapy against several tumors including gastrointestinal and gastric cancer” (IMMATICS BIOTECHNOLOGIES GMBH, priority 2010, dated 2018).

System: CD8+ T cells
Assay: In vitro immunogenicity of HLA-A*2402 restricted TUMAPs (aAPC priming of CD8+ T cells, multimer staining)
Format: cell-based, human
Conditions: HLA-A*2402 peptides, CD8+ T cells of healthy HLA-A*24 donors, three stimulation cycles with pMHC/anti-CD28 beads; for Wells positive/evaluable [%]: at least 48 wells evaluable; for Donors positive/evaluable [%]: at least four donors evaluable
From the text: In order to perform in vitro stimulations by artificial antigen presenting cells (aAPC) loaded with peptide-MHC complex (pMHC) and anti-CD28 antibody, we first isolated CD8 T cells from fresh HLA-A*24 leukapheresis products or from HLA-A*2 buffy coats of healthy donors obtained from the Blood Bank Tuebingen.
CD8 T cells were either directly enriched or PBMCs (peripheral blood mononuclear cells) were isolated first by using standard gradient separation medium (PAA, Colbe, Germany). Isolated CD8 lymphocytes or PBMCs were incubated until use in T-cell medium (TCM) consisting of RPMI-Glutamax (Invitrogen, Karlsruhe, Germany) supplemented with 10% heat inactivated human AB serum (PAN-Biotech, Aidenbach, Germany), 100 U/ml Penicillin/100 μg/ml Streptomycin (Cambrex, Cologne, Germany), 1 mM sodium pyruvate (CC Pro, Oberdorla, Germany), 20 μg/ml Gentamycin (Cambrex). […] Isolation of CD8+ lymphocytes was performed by positive selection using CD8 MicroBeads (Miltenyi Biotec, Bergisch-Gladbach, Germany).
800.000 beads/200 μl were coated in 96-well plates in the presence of 600 ng biotin-anti-CD28 plus 200 ng relevant biotin-pMHC (high density beads). […] Half of the medium was then exchanged by fresh TCM supplemented with 80 U/ml IL-2 and incubation was continued for 3-4 days at 37° C. This stimulation cycle was performed for a total of three times.
In vitro priming of specific multimer+CD8+ lymphocytes was detected by appropriate gating and by comparing to negative control stimulations.

Row | Sequence | Wells positive/evaluable [%] | Donors positive/evaluable [%]
1 | IYNGKLFDLL (listed as Homo sapiens) [KIF2C-001] | 2 | 17
2 | SYNVTSVLF (listed as Homo sapiens) [LCN2-001] | 1 | 17
3 | KYLTVKDYL (listed as Homo sapiens) [ATAD2-002] | 1 | 17
4 | VYGIRLEHF (listed as Homo sapiens) [NUF2-001] | 50 | 100
5 | DYTIGFGKF (listed as Homo sapiens) [ITGB4-001] | 20 | 67
6 | VFDTAIAHLF (listed as Homo sapiens) [SIAH2-001] | 8 | 50
7 | VYISSLALL (listed as Homo sapiens) [PSMD14-001] | 1 | 17
8 | VYTTSYQQI (listed as Homo sapiens) [NFYB-001] | 7 | 50
9 | RYLPQCSYF (listed as Homo sapiens) [CCND2-001] | 10 | 17
10 | VWSDVTPLTF (listed as Homo sapiens) [MMP11-001] | 11 | 33
11 | IFSKIVSLF (listed as Homo sapiens) [EIF2S3-001] | 1 | 17
12 | FYQPKIQQF (listed as Homo sapiens) [FANCI-001] | 1 | 17
13 | KYNDTFWKEF (listed as Homo sapiens) [HSP90B1-001] | 7 | 50
14 | SYIDVLPEF (listed as Homo sapiens) [MET-006] | 21 | 67
15 | AYLVYTDRL (listed as Homo sapiens) [PPAP2C-001] | 29 | 83
16 | RYLPKGFLNQF (listed as Homo sapiens) [PTK2-001] | 4 | 17
17 | VYFSKSEQL (listed as Homo sapiens) [EPHA2-005] | 0 | 0
18 | QYIDKLNEL (listed as Homo sapiens) [CCDC88A-001] | 0 | 0
19 | SYIIDPLNL (listed as Homo sapiens) [PROM1-001] | 26 | 83
20 | NYEETFPHI (listed as Homo sapiens) [MUC6-001] | 22 | 83
21 | RYLEGTSCI (listed as Homo sapiens) [EPPK1-001] | 1 | 17
22 | LYQILQGIVF (listed as Homo sapiens) [CDC2-001] | 28 | 83
23 | AYAIIKEEL (listed as Homo sapiens) [ATAD2-001] | 3 | 33
24 | RFLSGIINF (listed as Homo sapiens) [NUF2-002] | 6 | 50
25 | HYKPTPLYF (listed as Homo sapiens) [SMC4-001] | 10 | 73
26 | SYNPLWLRI (listed as Homo sapiens) [ASPM-002] | 32 | 67
27 | AYPTVKFYF (listed as Homo sapiens) [DNAJC10-002] | 3 | 33
28 | SYQKVIELF (listed as Homo sapiens) [PBK-001] | 0 | 0
29 | MYMTVSIIDRF (listed as Homo sapiens) [CCNB1-003] | 3 | 33
